Values after ≈ are worked out from the molar mass of the structure shown.
Legend:
P. aeruginosa LpxC = target: T1, P. aeruginosa LpxC (Pseudomonas aeruginosa, UniProt P47205); assay: LpxC Binding Assay (Rapid Fire MS assay); assay type: biochemical
T1 sequence (P47205 1-303): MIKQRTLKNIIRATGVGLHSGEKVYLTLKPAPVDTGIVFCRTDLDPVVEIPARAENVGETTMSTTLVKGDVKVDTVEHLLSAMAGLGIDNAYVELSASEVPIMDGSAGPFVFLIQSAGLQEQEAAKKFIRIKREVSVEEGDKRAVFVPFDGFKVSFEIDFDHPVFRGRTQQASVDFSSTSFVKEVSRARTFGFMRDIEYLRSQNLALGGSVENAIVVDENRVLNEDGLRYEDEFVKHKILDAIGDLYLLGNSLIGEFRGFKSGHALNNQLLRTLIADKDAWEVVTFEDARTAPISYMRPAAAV
Description: (§1) IC50 values against E. coli and P. aeruginosa LpxC are determined using a Rapid Fire MS assay as previously described J. Med. Chem. 2012, 55, 1662-1670.

E. coli LpxC = target: T2, E. coli LpxC (Escherichia coli, UniProt P0A725); assay: LpxC Binding Assay (Rapid Fire MS assay); assay type: biochemical
T2 sequence (P0A725 1-305): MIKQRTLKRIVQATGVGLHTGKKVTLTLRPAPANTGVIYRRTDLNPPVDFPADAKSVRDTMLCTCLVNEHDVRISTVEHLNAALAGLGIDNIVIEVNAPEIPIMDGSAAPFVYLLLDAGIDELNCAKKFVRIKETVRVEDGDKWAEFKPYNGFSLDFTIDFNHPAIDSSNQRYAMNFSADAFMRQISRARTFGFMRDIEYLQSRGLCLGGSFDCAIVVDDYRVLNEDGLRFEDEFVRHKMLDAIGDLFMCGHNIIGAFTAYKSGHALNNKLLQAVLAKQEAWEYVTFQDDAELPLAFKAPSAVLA
Description: as §1

K. pneumoniae ATCC13883 = assay: Bacterial susceptibility testing, MIC by broth microdilution (CLSI); assay type: cell-based; conditions: Klebsiella pneumoniae, 35° C., 18-24 h, read-out: MIC (μg/mL) K. pneumoniae ATCC13883
Description: (§2) Minimal inhibitory concentrations (MIC) were determined by the broth microdilution method in accordance with the Clinical and Laboratory Standards Institute (CLSI) guidelines. In brief, organism suspensions were adjusted to a final inoculum between 3×10^5 and 7×10^5 colony-forming units (CFU)/mL. Drug dilutions and inocula were made in sterile, cation adjusted Mueller-Hinton Broth (Beckton Dickinson). In wells, an inoculum volume of 100 μL was mixed to 2 μL of DMSO with 2-fold serial dilutions of drug. All inoculated microdilution trays were incubated in ambient air at 35° C. for 18-24 h. Following incubation, the lowest concentration of the drug that prevented visible growth (OD600 nm<0.05) was recorded as the MIC. Performance of the assay was monitored by the use of laboratory quality-control strains and compounds with defined MIC spectrum, in accordance with CLSI guidelines

P. aeruginosa 209 PAO1 = assay: as above; assay type: cell-based; conditions: Pseudomonas aeruginosa, 35° C., 18-24 h, read-out: MIC (μg/mL) P. aeruginosa 209 PAO1
Description: as §2

P. aeruginosa ATCC27835 = assay: as above; assay type: cell-based; conditions: Pseudomonas aeruginosa, 35° C., 18-24 h, read-out: MIC (μg/mL) P. aeruginosa ATCC27835
Description: as §2

K. pneumoniae LpxC = K. pneumoniae LpxC (Klebsiella pneumoniae subsp. pneumoniae, UniProt A6T4N9); assay: LpxC Binding Assay (Rapid Fire MS assay); assay type: biochemical
Chain of K. pneumoniae LpxC (A6T4N9 whole entry): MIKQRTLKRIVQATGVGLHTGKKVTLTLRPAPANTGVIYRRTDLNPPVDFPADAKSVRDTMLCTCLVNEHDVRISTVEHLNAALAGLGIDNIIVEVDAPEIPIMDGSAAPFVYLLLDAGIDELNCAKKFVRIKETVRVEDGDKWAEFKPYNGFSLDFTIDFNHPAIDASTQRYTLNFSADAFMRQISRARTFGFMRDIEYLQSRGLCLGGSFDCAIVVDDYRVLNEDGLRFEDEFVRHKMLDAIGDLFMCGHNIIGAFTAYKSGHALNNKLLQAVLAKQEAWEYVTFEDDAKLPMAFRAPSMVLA

E. coli ATCC25922 = assay: Bacterial susceptibility testing, MIC by broth microdilution (CLSI); assay type: cell-based; conditions: Escherichia coli, 35° C., 18-24 h, read-out: MIC (μg/mL) E. coli ATCC25922
Description: as §2

SMILES: C[C@H](O)c1nccn1[C@@H](C#Cc1ccc(-c2ccc(OC[C@@H](O)CO)cc2)cc1)CO [Compound 8, (S)-3-((4′-((S)-4-hydroxy-3-(2-((S)-1-hydroxyethyl)-1H-imidazol-1-yl)but-1-yn-1-yl)-[1,1′-biphenyl]-4-yl)oxy)propane-1,2-diol]
- IC50 (P. aeruginosa LpxC): 9.6 nM
- IC50 (E. coli LpxC): 1 nM
- MIC (K. pneumoniae ATCC13883): 4 µg/mL (≈ 9.47 µM)
- MIC (P. aeruginosa 209 PAO1): 2 µg/mL (≈ 4.73 µM)
- MIC (P. aeruginosa ATCC27835): 2 µg/mL (≈ 4.73 µM)
- IC50 (K. pneumoniae LpxC): 1.9 nM

SMILES: C[C@H](O)c1nccn1[C@@H](C#Cc1ccc(-c2ccc(O[C@H]3COC[C@@H]3O)cc2)cc1)CN (relative stereo) [Compound 24, (trans)-4-((4′-((S)-4-amino-3-(2-((S)-1-hydroxyethyl)-1H-imidazol-1-yl)but-1-yn-1-yl)-[1,1′-biphenyl]-4-yl)oxy)tetrahydrofuran-3-ol]
- IC50 (P. aeruginosa LpxC): 42.9 nM
- IC50 (E. coli LpxC): 1.9 nM
- MIC (K. pneumoniae ATCC13883): 4 µg/mL (≈ 9.23 µM)
- MIC (P. aeruginosa 209 PAO1): 2 µg/mL (≈ 4.61 µM)
- MIC (P. aeruginosa ATCC27835): 4 µg/mL (≈ 9.23 µM)
- IC50 (K. pneumoniae LpxC): 4.1 nM

SMILES: C[C@H](O)c1nccn1[C@@H](C#Cc1ccc(-c2ccc(OCC(C)(O)CO)cc2)cc1)CO (mixture of isomers) [Compound 16, 3-((4′-((S)-4-hydroxy-3-(2-((S)-1-hydroxyethyl)-1H-imidazol-1-yl)but-1-yn-1-yl)-[1,1′-biphenyl]-4-yl)oxy)-2-methylpropane-1,2-diol]
- IC50 (P. aeruginosa LpxC): 8.3 nM
- IC50 (E. coli LpxC): 1.3 nM
- MIC (K. pneumoniae ATCC13883): 4 µg/mL (≈ 9.16 µM)
- MIC (P. aeruginosa 209 PAO1): 2 µg/mL (≈ 4.58 µM)
- MIC (P. aeruginosa ATCC27835): 4 µg/mL (≈ 9.16 µM)
- IC50 (K. pneumoniae LpxC): 2.2 nM

SMILES: C[C@H](O)c1nccn1[C@@H](C#Cc1ccc(-c2ccc(OCC(CO)CO)cc2)cc1)CO [Compound 11, 2-(((4′-((S)-4-hydroxy-3-(2-((S)-1-hydroxyethyl)-1H-imidazol-1-yl)but-1-yn-1-yl)-[1,1′-biphenyl]-4-yl)oxy)methyl)propane-1,3-diol]
- IC50 (P. aeruginosa LpxC): 6.6 nM
- IC50 (E. coli LpxC): 1 nM
- MIC (K. pneumoniae ATCC13883): 8 µg/mL (≈ 18.3 µM)
- MIC (P. aeruginosa 209 PAO1): 2 µg/mL (≈ 4.58 µM)
- MIC (P. aeruginosa ATCC27835): 4 µg/mL (≈ 9.16 µM)
- IC50 (K. pneumoniae LpxC): 1.8 nM

SMILES: C[C@H](O)c1nccn1[C@@H](C#Cc1ccc(-c2ccc(O[C@H]3COC[C@@H]3O)cc2)cc1)CO (relative stereo) [Compound 10, (trans)-4-((4′-((S)-4-hydroxy-3-(2-((S)-1-hydroxyethyl)-1H-imidazol-1-yl)but-1-yn-1-yl)-[1,1′-biphenyl]-4-yl)oxy)tetrahydrofuran-3-ol]
- IC50 (P. aeruginosa LpxC): 5.1 nM
- IC50 (E. coli LpxC): < 0.5 nM
- MIC (K. pneumoniae ATCC13883): 2 µg/mL (≈ 4.6 µM)
- MIC (P. aeruginosa 209 PAO1): 1 µg/mL (≈ 2.3 µM)
- MIC (P. aeruginosa ATCC27835): 2 µg/mL (≈ 4.6 µM)
- IC50 (K. pneumoniae LpxC): 0.9 nM

SMILES: C[C@H](O)c1nccn1[C@@H](C#Cc1ccc(-c2ccc(OCCC(O)CO)cc2)cc1)CO (mixture of isomers) [Compound 17, 4-((4′-((S)-4-hydroxy-3-(2-((S)-1-hydroxyethyl)-1H-imidazol-1-yl)but-1-yn-1-yl)-[1,1′-biphenyl]-4-yl)oxy)butane-1,2-diol]
- IC50 (P. aeruginosa LpxC): 6.6 nM
- IC50 (E. coli LpxC): 0.5 nM
- MIC (K. pneumoniae ATCC13883): 2 µg/mL (≈ 4.58 µM)
- MIC (P. aeruginosa 209 PAO1): 1 µg/mL (≈ 2.29 µM)
- MIC (P. aeruginosa ATCC27835): 2 µg/mL (≈ 4.58 µM)
- IC50 (K. pneumoniae LpxC): 1 nM

SMILES: COCC(N)COc1ccc(-c2ccc(C#C[C@@H](CO)n3ccnc3[C@H](C)O)cc2)cc1 (mixture of isomers) [Compound 3, (2S)-4-(4′-(2-amino-3-methoxypropoxy)-[1,1′-biphenyl]-4-yl)-2-(2-((S)-1-hydroxyethyl)-1H-imidazol-1-yl)but-3-yn-1-ol]
- IC50 (P. aeruginosa LpxC): 15.1 nM
- IC50 (E. coli LpxC): 1.5 nM
- MIC (E. coli ATCC25922): 2 µg/mL (≈ 4.59 µM)
- MIC (K. pneumoniae ATCC13883): 4 µg/mL (≈ 9.18 µM)
- MIC (P. aeruginosa 209 PAO1): 1 µg/mL (≈ 2.3 µM)
- MIC (P. aeruginosa ATCC27835): 2 µg/mL (≈ 4.59 µM)
- IC50 (K. pneumoniae LpxC): 2.2 nM

SMILES: C[C@H](O)c1nccn1[C@@H](C#Cc1ccc(-c2ccc(O[C@@H]3C[C@H]3NCCF)cc2)cc1)CO (racemic) [Compound 12, (S)-4-(4′-((trans)-2-((2-fluoroethyl)amino)cyclopropoxy)-[1,1′-biphenyl]-4-yl)-2-(2-((S)-1-hydroxyethyl)-1H-imidazol-1-yl)but-3-yn-1-ol]
- IC50 (P. aeruginosa LpxC): 6 nM
- IC50 (E. coli LpxC): < 0.5 nM
- MIC (K. pneumoniae ATCC13883): 2 µg/mL (≈ 4.45 µM)
- MIC (P. aeruginosa 209 PAO1): 2 µg/mL (≈ 4.45 µM)
- MIC (P. aeruginosa ATCC27835): 4 µg/mL (≈ 8.9 µM)
- IC50 (K. pneumoniae LpxC): 1.1 nM

SMILES: C[C@H](O)c1nccn1CC#Cc1ccc(-c2ccc(C3CC(NCCO)C3)cc2)cc1 (stereo partly drawn) [Compound 19, (S)-2-((3-(4′-(3-(2-(1-hydroxyethyl)-1H-imidazol-1-yl)prop-1-yn-1-yl)-[1,1′-biphenyl]-4-yl)cyclobutyl)amino)ethan-1-ol]
- IC50 (P. aeruginosa LpxC): 15.9 nM
- IC50 (E. coli LpxC): < 0.5 nM
- MIC (K. pneumoniae ATCC13883): 1 µg/mL (≈ 2.41 µM)
- MIC (P. aeruginosa 209 PAO1): 4 µg/mL (≈ 9.63 µM)
- MIC (P. aeruginosa ATCC27835): 4 µg/mL (≈ 9.63 µM)
- IC50 (K. pneumoniae LpxC): 0.7 nM

SMILES: C[C@H](O)c1nccn1[C@@H](C#Cc1ccc(-c2ccc(CO[C@@H]3C[C@H]3N)cc2)cc1)CO (racemic) [Compound 9, (S)-4-(4′-(((trans)-2-aminocyclopropoxy)methyl)-[1,1′-biphenyl]-4-yl)-2-(2-((S)-1-hydroxyethyl)-1H-imidazol-1-yl)but-3-yn-1-ol]
- IC50 (P. aeruginosa LpxC): 47.7 nM
- IC50 (E. coli LpxC): 1.8 nM
- MIC (K. pneumoniae ATCC13883): 4 µg/mL (≈ 9.58 µM)
- MIC (P. aeruginosa 209 PAO1): 2 µg/mL (≈ 4.79 µM)
- MIC (P. aeruginosa ATCC27835): 4 µg/mL (≈ 9.58 µM)
- IC50 (K. pneumoniae LpxC): 3.9 nM

SMILES: C[C@H](O)c1nccn1CC#Cc1ccc(-c2ccc(C3CC(NCCC#N)C3)cc2)cc1 (stereo partly drawn) [Compound 18, (S)-3-((3-(4′-(3-(2-(1-hydroxyethyl)-1H-imidazol-1-yl)prop-1-yn-1-yl)-[1,1′-biphenyl]-4-yl)cyclobutyl)amino)propanenitrile]
- IC50 (P. aeruginosa LpxC): 8.6 nM
- IC50 (E. coli LpxC): < 0.5 nM
- MIC (K. pneumoniae ATCC13883): 0.25 µg/mL (≈ 0.589 µM)
- MIC (P. aeruginosa 209 PAO1): 2 µg/mL (≈ 4.71 µM)
- MIC (P. aeruginosa ATCC27835): 2 µg/mL (≈ 4.71 µM)
- IC50 (K. pneumoniae LpxC): 0.6 nM

From US20240166609A1, “ANTIBACTERIAL COMPOUNDS” (BLACKSMITH MEDICINES, INC., priority 2021, published 2024)
